Source: US20070185176A1, “Heparanase inhibitors and uses thereof” (Insight Bioharmaceuticals Ltd., priority 2004, published 2007)

How the values were obtained:
HT1080 cells = assay: In vitro assay of invasion inhibition (BD BioCoat Angiogenesis System, matrigel); assay type: cell-based, human; conditions: for Invasion: HT1080 cells through matrigel, non-toxic concentration, 22 hours
Method: (c) In Vitro Assay of Invasion Inhibition by Heparanase Inhibitors
The ability of the compounds of the invention to inhibit cell invasion was determined quantitatively by the in vitro Endothelial Cell Migration assay using a BD BioCoat Angiogenesis System kit. The kit consists of a 24-multiwell insert plate (FluoroBlok, BD Falcon) containing a microporous (3.0 μm pore size) polyethylene terephthalate (PET) membrane that is capable of blocking fluorescence completely (>99% efficiency). This membrane is uniformly coated with matrigel (BD Matrigel Matrix). The uniform layer of matrigel matrix serves as a reconstituted authentic basement membrane in vitro, providing a true barrier to non-invasive cells, but allowing endothelial cells to attach to the membrane and freely migrate towards an angiogenic stimulus in the lower chamber of the insert plate. Post-labeling the cells with a fluorescent dye and measuring the fluorescence of invading cells in a fluorescent plate reader, provides quantitative measurement of cell invasion.
To cover the optimal seeding density for HT1080 cells, suspensions containing various cell concentrations were prepared: 1 ml of 3×10^5 cells/ml, 8 ml of 1.5×10^5 cells/ml and 1 ml of 0.75×10^5 cells/ml. The top chambers of each well in the inserts was filled with 0.25 ml cell-suspension, […] DMEM containing 5% fetal calf serum and an inhibitor solution. The plates were incubated for 22 hours at 37° C. and 8% CO2 atmosphere. At the end of incubation, the medium was aspirated from the upper chambers, and the insert was transferred into a second 24-well plate containing 0.5 ml/well of the fluorescent dye Calcein AM solution (4 μg/ml per plate, prepared from 50 μg Calcein AM dissolved in 20 μl DMSO and 12.5 ml of warm HBSS medium), and incubated for 90 minutes at 37° C., 8% CO2 atmosphere. Fluorescence of invaded cells was read in a fluorescence plate reader with bottom read capabilities at excitation/emission wavelength of 485/530 nm, without further manipulation. Only those labeled cells that have invaded the matrigel and passed through the pores of the PET membrane, were detected.

[1] = biological target: T1, human recombinant heparanase (h-hpa) (Homo sapiens, UniProt Q9Y251); assay: In vitro dimethylmethylene blue (DMB) assay for heparanase activity
T1 sequence (Q9Y251 158-543 limits assumed): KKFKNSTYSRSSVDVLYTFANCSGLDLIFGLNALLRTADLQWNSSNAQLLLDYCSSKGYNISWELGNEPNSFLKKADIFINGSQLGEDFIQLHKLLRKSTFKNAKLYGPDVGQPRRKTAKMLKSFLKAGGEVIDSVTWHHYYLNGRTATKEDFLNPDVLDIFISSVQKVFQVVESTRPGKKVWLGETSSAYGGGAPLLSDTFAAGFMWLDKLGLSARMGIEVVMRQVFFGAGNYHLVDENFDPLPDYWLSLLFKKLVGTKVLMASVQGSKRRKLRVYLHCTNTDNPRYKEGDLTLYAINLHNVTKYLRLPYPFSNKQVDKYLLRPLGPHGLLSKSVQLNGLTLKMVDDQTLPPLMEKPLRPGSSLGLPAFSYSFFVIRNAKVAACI
T1 sequence (Q9Y251 36-109 limits assumed): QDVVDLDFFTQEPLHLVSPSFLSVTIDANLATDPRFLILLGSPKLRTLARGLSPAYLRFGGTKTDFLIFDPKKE
Method: (a) In Vitro Dimethylmethylene Blue (DMB) Assay for Heparanase Activity
Heparin Sepharose CL-6B beads were added up to the top of the wells of a multiscreen column loader (Millipore). A 96-well multiscreen plate containing 0.65 μm hydrophilic, low protein binding, Durapore membrane (Millipore) was placed, upside down, on top of the multiscreen column loader. The column loader and the multiscreen plate were held together, turned over, and the beads were uniformly transferred from the column loader to the multiscreen plate (Millipore, MADVM 650). Double-distilled water (DDW) was then added to the beads, which were allowed to swell for one minute, and then washed (three times) with DDW under vacuum. Heparin concentration was estimated to be 10 μM/well.
To each well, phosphate-buffered saline (PBS) containing 1% bovine serum albumin (BSA; 70 μl/well) and DMB (32 mg of DMB were dissolved in 5 ml ethanol, diluted to 1 liter with formate buffer containing 4 g sodium formate and 4 ml formic acid; 120 μl/well) were added. Color was developed after 5 minutes, and the absorbance of the samples was determined using a microplate reader (Spectra Max, Molecular Devices) at 530 nm with 570 nm as reference. The absorbance correlated to heparanase activity. As a control, heparanase was added to the heparin Sepharose swollen beads in the multiscreen plate and the heparanase reaction products were filtered immediately thereafter and the absorbance of these control samples was subtracted from all other samples.
The cell extracts were centrifuged and resuspended in 20 mM phosphate citrate buffer, pH 5.4 containing 50 mM NaCl. The cells were lysed by three cycles of freezing and thawing. The cell lysates were centrifuged (10000×g for 5 min), supernatants were collected and then assayed for heparanase activity using the DMB assay.
The partially purified human recombinant heparanase or the crude cell extracts expressing either human or mouse recombinant heparanase were added for a 3-hour incubation and the reaction continued as described above. Absorbance of the developing color was measured as described above.

Structure (SMILES): CCCCCCCCCCCCCCCC1=NN(c2ccc(S(=O)(=O)O)cc2)C(=O)C1Br (stereo not drawn) [Compound 13]
- Invasion (HT1080 cells): yes
- IC50 [1]: 1000 nM

Structure (SMILES): CCCCCCCCCCCCCCCCCC1=NN(c2ccc(Oc3ccc(OCC)cc3)c(S(=O)(=O)O)c2)C(=O)C1 [Compound 24]
- Invasion (HT1080 cells): yes
- IC50 [1]: 630 nM

Structure (SMILES): CCCCCCCCCCCCCCCCCC1=NN(c2ccc(Oc3ccccc3)c(S(=O)(=O)O)c2)C(=O)C1/N=N/c1c(C)n[nH]c1C (stereo not drawn) [Compound 12]
- Invasion (HT1080 cells): yes
- IC50 [1]: 240 nM

Structure (SMILES): CCCCCCCCCCCCCCCCCC1=Nn2c(nc3c(C(=O)O)cc(S(=O)(=O)O)cc32)C1 [Compound 4]
- Invasion (HT1080 cells): yes
- IC50 [1]: 1200 nM

Structure (SMILES): CCCCCCCCCCCCCCCCCC1=NN(c2ccc(Oc3ccccc3)c(S(=O)(=O)O)c2)C(=O)C1/N=N/c1ccc(N(CC)CC)cc1 (stereo not drawn) [Compound 10]
- Invasion (HT1080 cells): yes
- IC50 [1]: 260 nM

Structure (SMILES): CCCCCCCCCCCCCCCCCC1=NN(c2ccc(Oc3ccccc3)c(S(=O)(=O)O)c2)C(=O)C1C(C)C (stereo not drawn) [Compound 30]
- Invasion (HT1080 cells): yes
- IC50 [1]: 160 nM

Structure (SMILES): CCCCCCCCCCCCCCCCCCN(C(=O)c1cc(Br)c2ccccc2c1O)c1cc(C(=O)O)cc(C(=O)O)c1 [Compound 43]
- Invasion (HT1080 cells): yes
- IC50 [1]: 550 nM

Structure (SMILES): CCCCCCCCCCCCCCCCCC1=NN(c2ccc(Oc3ccccc3)c(S(=O)(=O)O)c2)C(=O)C1 [Compound 29]
- Invasion (HT1080 cells): yes
- IC50 [1]: 320 nM

Structure (SMILES): CCCCCCCCCCCCCCCCCC1=NN(c2ccc(Oc3ccccc3)c(S(=O)(=O)O)c2)C(=O)C1/N=N/c1cccc(O)c1 (stereo not drawn) [Compound 16]
- Invasion (HT1080 cells): yes
- IC50 [1]: 220 nM

Structure (SMILES): CCCCCCCCCCCCCCCCCC(=O)Nc1nn(-c2ccc(Oc3ccccc3)c(S(=O)(=O)O)c2)c(O)c1/N=N/c1c(C)nn(CCCCCCCCCC)c1C [Compound 32]
- Invasion (HT1080 cells): yes
- IC50 [1]: 240 nM

Structure (SMILES): CCCCCCCCCCCCCCCCCC1=NN(c2ccc(Oc3ccccc3)cc2S(=O)(=O)O)C(=O)C1/N=N/c1ccc(OC)cc1 (stereo not drawn) [Compound 19]
- Invasion (HT1080 cells): yes
- IC50 [1]: 320 nM

Structure (SMILES): CCCCCCCCCCCCCCCCCC(=O)NC1=NN(c2ccc(Oc3ccccc3)c(S(=O)(=O)O)c2)C(=O)C1/N=N/c1cc(C(=O)O)c(O)cc1Cl (stereo not drawn) [Compound 9]
- Invasion (HT1080 cells): yes
- IC50 [1]: 160 nM

Structure (SMILES): CCCCCCCCCCCC1SC1CCCCC(=O)Nc1cc(C(=O)O)ccc1Oc1cc(C(=O)O)cc(C(=O)O)c1 (stereo not drawn) [Compound 92]
- IC50 [1]: 500 nM

Structure (SMILES): CCCCCCCCCCCCCCCCCC(=O)NC1=NN(c2ccc(Oc3ccccc3)c(S(=O)(=O)O)c2)C(=O)C1/N=N/c1c(C)nn(C)c1C (stereo not drawn) [Compound 22]
- Invasion (HT1080 cells): yes
- IC50 [1]: 650 nM

Structure (SMILES): CCCCCCCCCCCC1OC1CCCCC(=O)Nc1cc(C(=O)O)ccc1Oc1cc(C(N)=O)cc(C(=O)O)c1 (stereo not drawn) [Compound 95]
- IC50 [1]: 1000 nM

Structure (SMILES): CCCCCCCCCCCCCCCCCC(=O)NC1=NN(c2ccc(Oc3ccccc3)c(S(=O)(=O)O)c2)C(=O)C1 [Compound 1]
- inhibition of cell invasion (HT1080 cells): effective inhibitors of cell invasion
- Invasion (HT1080 cells): yes

Structure (SMILES): CCCCCCCCCCCCCCCCCCNCC(O)Cn1c2ccc(Br)cc2c2cc(Br)ccc21 (stereo not drawn) [Compound 91]
- IC50 [1]: 15000 nM

Structure (SMILES): CCCCCCCCCCCCCCCCCC(=O)NNC(=O)CC(=O)Nc1ccccc1C(=O)O [Compound 2]
- inhibition of cell invasion (HT1080 cells): effective inhibitors of cell invasion
- Invasion (HT1080 cells): yes
- IC50 [1]: 1700 nM

Structure (SMILES): CCCCCCCCCCCCCCCCCCOc1ccc(C(=O)CC(=O)Nc2ccc(Oc3cccc(C(=O)O)c3)c(C(=O)O)c2)cc1 [Compound 23]
- IC50 [1]: 400 nM

Structure (SMILES): CCN1C(=O)/C(=C2\SC(=S)N(CCCCCCCCCCC(=O)O)C2=O)c2ccccc21 [Compound 82]
- IC50 [1]: 17000 nM

Structure (SMILES): O=C(O)CCCCCCCCCCN1C(=O)/C(=C/c2cccc(Br)c2)SC1=S [Compound 81]
- IC50 [1]: 18000 nM

Structure (SMILES): CCCCCCCCCCCCCCCCCCNC(=O)c1cc(S(=O)(=O)O)c2ccccc2c1O [Compound 72]
- IC50 [1]: 320 nM

Structure (SMILES): CCCCCCCCCCCCCCCCCCOc1ccc(C(=O)O)cc1NC(=O)c1cc(Sc2nnnn2-c2ccccc2)c2ccccc2c1O [Compound 46]
- IC50 [1]: 7700 nM

Structure (SMILES): CCCCCCCCCCCCCCCCCCC(=O)CC(=O)Nc1ccc(Oc2ccc(C(=O)O)cc2)c(C(=O)O)c1 [Compound 51]
- IC50 [1]: 3000 nM

Structure (SMILES): CCCCCCCCCCCCC/C=C/CC(O)(C(=O)O)C(F)(F)F (stereo not drawn) [Compound 97]
- IC50 [1]: 6000 nM

Structure (SMILES): CCCCCCCCCCCCCCC(=O)NC1=NN(c2ccc(Oc3ccccc3)c(S(=O)(=O)O)c2)C(=O)C1 [Compound 84]
- IC50 [1]: 730 nM

Structure (SMILES): CCCCCCCCCCCCCCCCCCN(C)c1ccc(S(=O)(=O)O)cc1NC(=O)c1cc(/N=N/c2cc(OC)c(O)cc2Cl)c2ccccc2c1O [Compound 55]
- IC50 [1]: 430 nM

Structure (SMILES): CCCCCCCCCCCCCCCCCCOc1ccc(S(=O)(=O)Nc2cccc(S(=O)(=O)N/N=C3\N(C)c4ccccc4C3(C)C)c2)cc1C(=O)O [Compound 59]
- IC50 [1]: 490 nM

Structure (SMILES): CCCCCCCCCCCCCCCCCCN(C)c1ccc(C(=O)O)cc1NC(=O)c1cc(/N=N/c2cc(C(=O)OC)ccc2O)c2ccccc2c1O [Compound 62]
- IC50 [1]: 11600 nM

Structure (SMILES): CCCCCCCCCCCCCCCCCC(=O)Nc1ccc(C(=O)CC(=O)Nc2cc(C(=O)O)ccc2Oc2cc(C(=O)O)cc(C(=O)O)c2)cc1 [Compound 60]
- IC50 [1]: 440 nM

Structure (SMILES): CCCCCCCCCCCCCCCCCCN(C)c1ccc(S(=O)(=O)O)cc1NC(=O)c1cc(/N=N/c2cc(NS(=O)(=O)c3ccc(C)cc3)ccc2Cl)c2ccccc2c1O [Compound 52]
- IC50 [1]: 740 nM

Structure (SMILES): CCCCCCCCCCCCCCCCCC(=O)NC1=NN(c2ccc(Oc3ccccc3)c(S(=O)(=O)O)c2)C(=O)C1/N=N/c1ccc(O)cc1Cl (stereo not drawn) [Compound 69]
- IC50 [1]: 180 nM

Structure (SMILES): CCCCCCCCCCCCCCCCCCN1/C(=C/C=C/c2sc3ccccc3[n+]2CCCCCCCCCCCCCCCCCC)Sc2ccccc21 [Compound 67]
- IC50 [1]: 1500 nM

Structure (SMILES): CCCCCCCCCCCC1OC1CCCCC(=O)Nc1cc(C(=O)O)ccc1Oc1cc(C(=O)O)cc(C(=O)O)c1 (stereo not drawn) [Compound 87]
- IC50 [1]: 400 nM

Structure (SMILES): CCCCCCCCCCCCCCCCCCN(C)c1ccc(S(=O)(=O)O)cc1NC(=O)c1cc(/N=N/c2cccc(NS(=O)(=O)c3ccccc3)c2)c2ccccc2c1O [Compound 33]
- IC50 [1]: 210 nM

Structure (SMILES): CCCCCCCCCCCCCCCCCC1=NN(c2ccc(Oc3ccccc3)c(S(=O)(=O)O)c2)C(=O)C1/N=N/c1ccccc1N(C)C (stereo not drawn) [Compound 5]
- IC50 [1]: 220 nM

Structure (SMILES): CCCCCCCCCCC/C=C\CCCCC(=O)NC1=NN(c2ccc(Oc3ccccc3)c(S(=O)(=O)O)c2)C(=O)C1 [Compound 85]
- IC50 [1]: 400 nM

Structure (SMILES): CCCCCCCCCCCCCCCCn1c(=N)n(CC(O)c2ccc(OC)c(OC)c2)c2ccccc21 (stereo not drawn) [Compound 65]
- IC50 [1]: 4800 nM

Structure (SMILES): CCCCCCCCCCCC(Cl)C(O)CCCCC(=O)Nc1cc(C(=O)O)ccc1Oc1cc(C(=O)O)cc(C(=O)O)c1 (stereo not drawn) [Compound 93]
- IC50 [1]: 9150 nM

Structure (SMILES): CCCCCCCCCCCCCCCCCC1=NN(c2ccc(Oc3ccccc3)c(S(=O)(=O)O)c2)C(=O)C1/N=N/c1ccc(OC)cc1 (stereo not drawn) [Compound 7]
- IC50 [1]: 240 nM

Structure (SMILES): CCCCCCCCCCCCCCCCCC1=NN(c2ccc(Oc3ccccc3)c(S(=O)(=O)O)c2)C(=O)C1/N=N/c1ccc(NC(C)=O)cc1 (stereo not drawn) [Compound 26]
- IC50 [1]: 130 nM

Structure (SMILES): CCCCCCCCCCCCCCCCCCOc1ccc(S(=O)(=O)O)cc1NC(=O)c1cc(/N=N/c2ccccc2C(=O)O)c2ccccc2c1O [Compound 49]
- IC50 [1]: 2700 nM

Structure (SMILES): C=CCCCCCCCCCCCCCCC(CC(=O)NC1=NN(c2c(Cl)cc(Cl)cc2Cl)C(=O)C1)C(=O)O (stereo not drawn) [Compound 56]
- IC50 [1]: 6800 nM

Structure (SMILES): CCCCCCCCCCCCCCCCOc1ccc(/C(=N\NS(=O)(=O)c2cc(C(=O)O)cc(C(=O)O)c2)N2CCCCC2)cc1OC [Compound 76]
- IC50 [1]: 3000 nM
